This note sets out measurements from patent publication US20190125790A1, “USE OF HYPOCHLOROUS ACID AS A TOPICAL ANTIMICROBIAL” (BIIOSMART TECHNOLOGIES LLC, priority 2016, published 2019).

The series can be described thus: Controlled randomized single blind clinical trial in surgical open wounds. It is filed as in vivo, human. On the procedure: The biocompatibility of the 0.046% HOCl concentration aqueous solution was tested in a three way controlled and randomized single blind clinical trial. Patients were randomized into three groups (60 patients per group). The antiseptic efficacy and biocompatibility of the test solution vs. povidone-iodine vs. chlorhexidine (Chlorhexidine Gluconate—CHG) in surgical—clean and clean contaminated—open wounds was evaluated in 180 patients admitted to the surgical facilities of Erasmo Meoz Hospital in Cucuta, Colombia.

Each structure is given as a SMILES string.

Take `[H]/N=C(\N/C(=N/[H])NCCCCCCNC(=N)NC(=N)Nc1ccc(Cl)cc1)Nc1ccc(Cl)cc1` [chlorhexidine, Chlorhexidine Gluconate]: the infected patients entry (after five days follow-up, 60 patients per group) is “two”. Moreover, where the note is “human, in vivo”, the “wound appearance (biocompatibility)” value is “dried edges and no promising color in wound bed”.
